ChEMBL document CHEMBL4819052, “Structure-Based Approaches to Improving Selectivity through Utilizing Explicit Water Molecules: Discovery of Selective β-Secretase (BACE1) Inhibitors over BACE2” (J Med Chem, 2021)

Assay: Dissociation constant, pKa of compound by capillary electrophoresis
Type: physicochemical

pKa | Compound
8.4 | CC#C[C@@]1(c2cc(NC(=O)c3cnc(OCF)cn3)ccc2F)CCOC(N)=N1
6.5 | CC#C[C@]1(c2cc(NC(=O)c3cnc(OCF)cn3)ccc2F)N=C(N)OC[C@@H]1F
8.3 | CC#C[C@@]1(c2cc(NC(=O)c3ccc(C#N)cn3)ccc2F)CCOC(N)=N1
7.5 | CC#C[C@]1(c2cc(NC(=O)c3cnc(OCF)cn3)ccc2F)N=C(N)OCC12CC(F)(F)C2
